Source: patent US11897868B2, “Heterocyclic inhibitors of PCSK9” (CARDIO THERAPEUTICS PTY LTD, priority 2017, dated 2024)

What follows are molecules tested against T1, PCSK9 and the LDL receptor (Homo sapiens, UniProt Q8NBP7) (assay: CircuLex PCSK9-LDLR in vitro binding assay). Settings: His-tagged PCSK9 wild type, 8 point concentration curves, absorbance 450 nm and 540 nm, read-out: Inhibition of PCSK9-LDLR binding.
T1 construct: purchased CircuLex CY-8150
Method: Compounds were assayed for their ability to inhibit the binding between PCSK9 and the LDL receptor using a CircuLex PCSK9-LDLR in vitro binding assay kit (Catalog #CY-8150. The procedure employed the reagents and buffers included in the kit as follows.
88 μL of 1× reaction buffer were placed into each well. 5 μL of test compounds in 20% DMSO were added into each well. 10 mM solutions of test compounds in DMSO were diluted by 3-fold series to give 8 point concentration curves. The compounds were then diluted 20-fold with the reaction buffer. To each well was then added 7 μL of His-tagged PCSK9 wild type solution (1000 ng/mL) into each well. The plate was then covered with a plate sealer and incubated at room temperature for 3 hours, shaking at 300 rpm on an orbital microplate shaker. The test solutions were washed 4 times with 350 μL wash buffer. 100 μL of biotinylated anti-His-tag monoclonal antibody was added to each well. The plate was covered with a plate sealer, and incubated at room temperature for 1 hour, shaking at 300 rpm. The test solutions were washed 4 times with 350 μL wash buffer. 100 μL of HRP-conjugated streptavidin was added to each well. The plate was covered with a plate sealer, and incubated at room temperature for 20 min, shaking at 300 rpm.
The test solutions were washed 4 times with 350 μL wash buffer. 100 μL of substrate reagent were added into each well. The plate was covered with a plate sealer, and incubated at room temperature for 15 min, shaking at 300 rpm. Finally, 100 μL of the stop solution was added to each well in the same order as the previously added substrate reagent. Absorbance was measured at 450 nm and 540 nm and IC50 curves were plotted.

T1 sequence (Q8NBP7 153-692): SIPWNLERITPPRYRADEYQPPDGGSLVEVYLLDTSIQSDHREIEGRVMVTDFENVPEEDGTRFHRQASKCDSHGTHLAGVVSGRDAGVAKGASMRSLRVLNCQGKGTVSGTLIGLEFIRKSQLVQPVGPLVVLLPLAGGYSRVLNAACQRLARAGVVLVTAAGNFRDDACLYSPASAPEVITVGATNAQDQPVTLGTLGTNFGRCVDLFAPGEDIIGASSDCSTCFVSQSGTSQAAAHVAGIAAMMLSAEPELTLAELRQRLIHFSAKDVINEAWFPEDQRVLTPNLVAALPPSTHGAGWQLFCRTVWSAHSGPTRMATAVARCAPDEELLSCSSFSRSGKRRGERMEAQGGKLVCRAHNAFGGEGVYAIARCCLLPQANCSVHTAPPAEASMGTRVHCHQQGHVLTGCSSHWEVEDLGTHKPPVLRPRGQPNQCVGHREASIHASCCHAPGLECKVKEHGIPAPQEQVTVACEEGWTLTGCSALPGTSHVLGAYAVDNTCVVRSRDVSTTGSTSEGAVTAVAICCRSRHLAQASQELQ
T1 sequence (Q8NBP7 31-152 partner limits assumed): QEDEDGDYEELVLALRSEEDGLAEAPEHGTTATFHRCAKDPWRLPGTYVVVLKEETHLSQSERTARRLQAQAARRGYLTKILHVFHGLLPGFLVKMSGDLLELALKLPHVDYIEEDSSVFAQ

| SMILES | IC50 [µM] |
| --- | --- |
| Cc1cn(-c2cc(NC(=O)c3ccc(C)c(Nc4ncccn4)c3)cc(C(F)(F)F)c2)cn1 [Example 4, 4-methyl-N-(3-(4-methyl-1H-imidazol-1-yl)-5-(trifluoromethyl)phenyl)-3-(pyrimidin-2-ylamino)benzamide] | 10 to 100 |
| Cc1cn(-c2cc(/C=C/C(=O)O)cc(NC(=O)c3ccc(C)c(Nc4nccc(-c5ccccc5)n4)c3)c2)cn1 [Example 8, (E)-3-(3-(4-methyl-1H-imidazol-1-yl)-5-(4-methyl-3-((4-phenylpyrimidin-2-yl)amino)benzamido)phenyl)acrylic Acid] | 10 to 100 |
| Cc1cn(-c2cc(CCS(N)(=O)=O)cc(NC(=O)c3ccc(C)c(Nc4nccc(-c5ccccc5)n4)c3)c2)cn1 [Example 10, 4-methyl-N-(3-(4-methyl-1H-imidazol-1-yl)-5-(2-sulfamoylethyl)phenyl)-3-((4-phenylpyrimidin-2-yl)amino)benzamide] | 10 to 100 |
| Cc1ccc(C(=O)Nc2cc(-n3cnc(C)c3)cc(C(F)(F)F)c2)cc1 [Example 12, 4-methyl-N-(3-(4-methyl-1H-imidazol-1-yl)-5-(trifluoromethyl)phenyl)benzamide] | 10 to 100 |
| Cc1cn(-c2cc(NC(=O)c3ccc(C)c(Oc4ccccc4)c3)cc(C(F)(F)F)c2)cn1 [Example 13, 4-methyl-N-(3-(4-methyl-1H-imidazol-1-yl)-5-(trifluoromethyl)phenyl)-3-phenoxybenzamide] | 10 to 100 |
| Cc1cn(-c2cc(NC(=O)c3ccc(C)c(OCc4ccccc4)c3)cc(C(F)(F)F)c2)cn1 [Example 14, 3-(benzyloxy)-4-methyl-N-(3-(4-methyl-1H-imidazol-1-yl)-5-(trifluoromethyl)phenyl)benzamide] | 10 to 100 |
| Cc1cn(-c2cc(NS(=O)(=O)c3ccc(C)c(Nc4nccc(-c5ccccc5)n4)c3)cc(C(F)(F)F)c2)cn1 [Example 15, 4-methyl-N-(3-(4-methyl-1H-imidazol-1-yl)-5-(trifluoromethyl)phenyl)-3-((4-phenylpyrimidin-2-yl)amino)benzenesulfonamide] | 10 to 100 |
| CC(=O)Nc1ccnc(Nc2cc(C(=O)Nc3cc(-n4cnc(C)c4)cc(C(F)(F)F)c3)ccc2C)n1 [Example 16, 3-((4-acetamidopyrimidin-2-yl)amino)-4-methyl-N-(3-(4-methyl-1H-imidazol-1-yl)-5-(trifluoromethyl)phenyl)benzamide] | 10 to 100 |
| Cc1ccc(C(=O)Nc2cccc(C(F)(F)F)c2)cc1Nc1nccc(-c2cccnc2)n1 [Example 17, 4-methyl-3-((4-(pyridin-3-yl)pyrimidin-2-yl)amino)-N-(3-(trifluoromethyl)phenyl)benzamide] | > 100 |
| Cc1cn(-c2cc(CN3CCCC[C@H]3C(=O)O)cc(NC(=O)c3ccc(C)c(Nc4nccc(-c5ccc(F)cc5)n4)c3)c2)cn1 [Example 20, (S)-1-(3-(3-((4-(4-fluorophenyl)pyrimidin-2-yl)amino)-4-methylbenzamido)-5-(4-methyl-1H-imidazol-1-yl)benzyl)piperidine-2-carboxylic Acid] | 10 to 100 |

Other lines, results leading:

| IC50 [µM] | SMILES |
| --- | --- |
| 10 to 100 | Cc1cn(-c2cc(NC(=O)c3ccc(C)c(Nc4nccc(-c5ccccn5)n4)c3)cc(C(F)(F)F)c2)cn1 [Example 1, 4-methyl-N-(3-(4-methyl-1H-imidazol-1-yl)-5-(trifluoromethyl)phenyl)-3-((4-(pyridin-2-yl)pyrimidin-2-yl)amino)benzamide] |
| 1 to 10 | Cc1cn(-c2cc(NC(=O)c3ccc(C)c(Nc4nccc(-c5ccncc5)n4)c3)cc(C(F)(F)F)c2)cn1 [Example 2, 4-methyl-N-(3-(4-methyl-1H-imidazol-1-yl)-5-(trifluoromethyl)phenyl)-3-((4-(pyridin-4-yl)pyrimidin-2-yl)amino)benzamide] |
| 1 to 10 | Cc1cn(-c2cc(NC(=O)c3ccc(C)c(Nc4nccc(-c5ccccc5)n4)c3)cc(C(F)(F)F)c2)cn1 [Example 3, 4-methyl-N-(3-(4-methyl-1H-imidazol-1-yl)-5-(trifluoromethyl)phenyl)-3-((4-phenylpyrimidin-2-yl)amino)benzamide] |
| 0.1 to 1 | Cc1cn(-c2cc(NC(=O)c3ccc(C)c(Nc4nccc(-c5ccccc5)n4)c3)cc(N3CCNCC3)c2)cn1 [Example 5, 4-methyl-N-(3-(4-methyl-1H-imidazol-1-yl)-5-(piperazin-1-yl)phenyl)-3-((4-phenylpyrimidin-2-yl)amino)benzamide] |
| 0.1 to 1 | Cc1cn(-c2cc(NC(=O)c3ccc(C)c(Nc4nccc(-c5ccccc5)n4)c3)cc(N3CCN(C)CC3)c2)cn1 [Example 6, 4-methyl-N-(3-(4-methyl-1H-imidazol-1-yl)-5-(4-methylpiperazin-1-yl)phenyl)-3-((4-phenylpyrimidin-2-yl)amino)benzamide] |
| 0.1 to 1 | Cc1cn(-c2cc(CN3CCN(C)CC3)cc(NC(=O)c3ccc(C)c(Nc4nccc(-c5ccccc5)n4)c3)c2)cn1 [Example 7, 4-methyl-N-(3-(4-methyl-1H-imidazol-1-yl)-5-((4-methylpiperazin-1-yl)methyl)phenyl)-3-((4-phenylpyrimidin-2-yl)amino)benzamide] |
| 1 to 10 | Cc1cn(-c2cc(CCC(=O)O)cc(NC(=O)c3ccc(C)c(Nc4nccc(-c5ccccc5)n4)c3)c2)cn1 [Example 9, 3-(3-(4-methyl-1H-imidazol-1-yl)-5-(4-methyl-3-((4-phenylpyrimidin-2-yl)amino)benzamido)phenyl)propanoic Acid] |
| 1 to 10 | CCCCc1cc(NC(=O)c2ccc(C)c(Nc3nccc(-c4ccccc4)n3)c2)cc(-n2cnc(C)c2)c1 [Example 11, N-(3-butyl-5-(4-methyl-1H-imidazol-1-yl)phenyl)-4-methyl-3-((4-phenylpyrimidin-2-yl)amino)benzamide] |
| 1 to 10 | Cc1cn(-c2cc(N3C(=O)c4cc(C)c(Nc5nccc(-c6cccnc6)n5)cc4C3=O)cc(C(F)(F)F)c2)cn1 [Example 18, 5-methyl-2-(3-(4-methyl-1H-imidazol-1-yl)-5-(trifluoromethyl)phenyl)-6-((4-(pyridin-3-yl)pyrimidin-2-yl)amino)isoindoline-1,3-dione] |
| 0.1 to 1 | Cc1cn(-c2cc(CN3CCC[C@H](N)C3)cc(NC(=O)c3ccc(C)c(Nc4nccc(-c5ccc(F)cc5)n4)c3)c2)cn1 [Example 19, (S)—N-(3-((3-aminopiperidin-1-yl)methyl)-5-(4-methyl-1H-imidazol-1-yl)phenyl)-3-((4-(4-fluorophenyl)pyrimidin-2-yl)amino)-4-methylbenzamide] |
| 1 to 10 | Cc1cn(-c2cc(CN3CCCC[C@H]3C(N)=O)cc(NC(=O)c3ccc(C)c(Nc4nccc(-c5ccc(F)cc5)n4)c3)c2)cn1 [Example 21, (S)-1-(3-(3-((4-(4-fluorophenyl)pyrimidin-2-yl)amino)-4-methylbenzamido)-5-(4-methyl-1H-imidazol-1-yl)benzyl)piperidine-2-carboxamide] |

Same assay, conditions: His-tagged PCSK9 wild type; 8 point concentration curves; absorbance 450 nm and 540 nm; IC50 curves

| SMILES | Inhibition of PCSK9-LDLR binding |
| --- | --- |
| Cc1cn(-c2cc(NS(=O)(=O)c3ccc(C)c(Nc4nccc(-c5ccc(F)cc5)n4)c3)cc(N3CCN(C)CC3)c2)cn1 [Example 22, 3-((4-(4-fluorophenyl)pyrimidin-2-yl)amino)-4-methyl-N-(3-(4-methyl-1H-imidazol-1-yl)-5-(4-methylpiperazin-1-yl)phenyl)benzenesulfonamide] | * (Starred values refer to levels of inhibition of binding by less than 35% at the highest concentration tested, due either to solubility limitations or dynamic range limitations of the assay.) |
